The values that follow come from publication PMC4521150, “Discovery of Novel Inhibitors and Fluorescent Probe Targeting NAMPT” (Scientific Reports, 2015).

By IC50 is commonly meant the concentration needed to halve the response being measured.

The target in one test is T1, recombinant human NAMPT (Homo sapiens, UniProt P43490).
T1 construct: His tag (N); made in house; host or cells: E. coli BL21-CodonPlus (DE3)-RIL, pET21a+ vector
T1 sequence (P43490 whole entry): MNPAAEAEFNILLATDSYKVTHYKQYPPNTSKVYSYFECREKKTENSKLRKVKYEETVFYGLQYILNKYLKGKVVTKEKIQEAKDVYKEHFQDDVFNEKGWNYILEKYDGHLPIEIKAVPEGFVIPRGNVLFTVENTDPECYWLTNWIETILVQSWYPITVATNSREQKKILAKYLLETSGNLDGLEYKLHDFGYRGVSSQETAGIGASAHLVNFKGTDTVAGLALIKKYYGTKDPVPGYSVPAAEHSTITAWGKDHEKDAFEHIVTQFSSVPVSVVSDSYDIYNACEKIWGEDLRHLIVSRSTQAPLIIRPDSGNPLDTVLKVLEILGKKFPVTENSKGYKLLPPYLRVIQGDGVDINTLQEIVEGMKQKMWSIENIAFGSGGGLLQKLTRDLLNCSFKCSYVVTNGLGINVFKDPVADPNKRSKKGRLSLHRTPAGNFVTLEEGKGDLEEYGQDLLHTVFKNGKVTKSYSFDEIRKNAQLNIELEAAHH
As to the kind of experiment: HTS / fixed-concentration NAMPT activity screen (fluorometric). It counts as biochemical. As to conditions: 20 μM compound; analogues of the 46 non-fluorescent inhibitors. An excerpt: Using our previously established high throughput screening (HTS) platform and recombinant human NAMPT[14][15], we performed a HTS on a chemical library containing 30000 small-molecules (Chemdiv, CA, USA). Our HTS targeting NAMPT was developed based on a fluorometric method for NAMPT activity assay by measuring the fluorescence of nicotinamide mononucleotide (NMN) derivative resulting from the NAMPT enzymatic product NMN through simple chemical reactions (Fig. 1A). The 30000 compounds were dissolved with dimethyl sulfoxide (DMSO); most of compounds were soluble at 10 mM stock solution (94.1%), some compounds insoluble at 10 mM were soluble at 2.5 mM stock solution (4.4%), and the remaining compounds insoluble at 2.5 mM (1.5%) were diluted further during HTS experiments (Fig. 1B). To guarantee the quality of screening, S/N ratio, CV and Z’ factors were monitored throughout the screenings, and all three indices met the requirements of HTS (Fig. 1C–E). After a primary screen and a secondary screen of all compounds at 20 μM, 242 compounds were selected as the hits of NAMPT inhibitors (NAMPT activity < 40%), and the hit rate was ~0.8% (Fig. 1F). […] All these 55 compounds were not reported as NAMPT inhibitors previously. Among the 55 compounds, we noted 46 compounds were non-fluorescent and 9 compounds were fluorescent (Fig. 1F). These fluorescent and non-fluorescent compounds were further studied separately.
(§1) HTS was performed using our previously reported method. 0.5 μl stock of each compound (1 mM DMSO stock) was transferred to a 96-well PCR plate for screening. In the primary screening, 5 ng NAMPT in 20 μl reaction buffer [0.4 mM phosphoribosylpyrophosphate (PRPP, Sigma), 2 mM ATP, 0.02% BSA, 2 mM DTT, 12 mM MgCl2 and 50 mM Tris-HCl (pH = 7.5)] was added into each well, the plate was incubated at 37 °C for 5 min, then 4.5 μl substrate of NAM was added to initiate the enzyme reaction, resulting in a final concentration of 2% DMSO, 2 μg/ml NAMPT, 0.2 μM NAM and 20 μM compound. After reacting at 37 °C for 15 min, the enzyme reaction was terminated by heating at 95 °C for 1 min and cooling in an ice bath. The product of NMN was detected through the following approach: after adding 10 μl 20% acetophenone in DMSO and 10 μl 2 M KOH into each well, the mixture was vortex-mixed and kept in ice bath for 2 min. Then 45 μl 88% formic acid was added and the mixture was incubated at 37 °C for 10 min. Finally, 85 μl mixtures in each well were transferred into a flat-bottom 96-well black plate (Greiner), and the fluorescence (F) was measured using a Tecan Infinity M200 plate reader (Tecan Group Ltd.) by setting the excitation and emission wavelength to 382 nm and 445 nm respectively. The last row of each 96-well plate includes six wells of background controls and six wells of reference controls. The relative enzyme activity (Activity%) regulated by specific compound was calculated according to equation (1):
F0 was the averaged fluorescence of six background controls, representing zero activity from a simulated enzyme reaction with only NAMPT but no NAM and compound; F100% was the averaged fluorescence of six reference controls, representing 100% activity from intact enzyme reaction without compound perturbation.
Compounds with Activity% less than 40% were considered as inhibitors and subjected to a secondary screen inhibition validation, in which another background control (FC0), a simulated enzyme reaction with NAMPT and compound but no NAM, was introduced to eliminate the direct and/or indirect influence from compound. At this stage, the Activity% was calculated according to equation (2): […]
Take `COc1cccc(CNC(=O)CCCn2c(=O)c3cccn3c3cccnc32)c1OC` [E524-1489]: the “NAMPT inhibition activity at 20 μM” value is reported as “No (showed no NAMPT inhibition activity at 20 μM (NAMPT activity ≥40%))”. The same measure, in the same setting: the result for `Cc1ccc(Cl)cc1NC(=O)CCCn1c(=O)c2cccn2c2cccnc21` [E524-1295] reads “No (showed no NAMPT inhibition activity at 20 μM (NAMPT activity ≥40%))”; that for `CCCNC(=O)c1ccc(Cn2c(=O)c3cccn3c3cccnc32)cc1` [E524-1613], “No (showed no NAMPT inhibition activity at 20 μM (NAMPT activity ≥40%))”; that for `COc1ccc(Cl)cc1NC(=O)NCc1noc2ccccc12` [E567-0019], “No (showed no NAMPT inhibition activity at 20 μM (NAMPT activity ≥40%))”. Consider `CC(C)OCCCNC(=O)c1ccc(Cn2c(=O)c3cccn3c3cccnc32)cc1` [E524-1673], for which the “NAMPT inhibition activity at 20 μM” value is “No (showed no NAMPT inhibition activity at 20 μM (NAMPT activity ≥40%))”. The same measure, in the same setting: the result for `COc1ccc(Br)cc1CNC(=O)CCCn1c(=O)c2cccn2c2cccnc21` [E524-1499] reads “No (showed no NAMPT inhibition activity at 20 μM (NAMPT activity ≥40%))”; that for `Cc1ccccc1CNC(=O)Cn1c(=O)c2cccn2c2cccnc21` [E524-0298], “No (showed no NAMPT inhibition activity at 20 μM (NAMPT activity ≥40%))”.

Regarding `COc1ccc(OC)c(CNC(=O)CCCn2c(=O)c3cccn3c3cccnc32)c1` [C799-0387], the “NAMPT inhibition activity at 20 μM” value is on record as “No (showed no NAMPT inhibition activity at 20 μM (NAMPT activity ≥40%))”.

In the case of `Cc1ccc2onc(CNC(=O)Nc3ccccc3C#N)c2c1` [E569-0217], the “NAMPT inhibition activity at 20 μM” value is listed as “No (showed no NAMPT inhibition activity at 20 μM (NAMPT activity ≥40%))”. Same read-out and setting: the value for `CC(C)NC(=O)c1ccc(Cn2c(=O)c3cccn3c3cccnc32)cc1` [E524-1612] was “No (showed no NAMPT inhibition activity at 20 μM (NAMPT activity ≥40%))”; that for `CC(=O)c1cccc(NC(=O)Cc2noc3ccccc23)c1` [E207-0513] was “No (showed no NAMPT inhibition activity at 20 μM (NAMPT activity ≥40%))”.

Regarding `CCOc1ccc(CCNC(=O)CCCn2c(=O)c3cccn3c3cccnc32)cc1` [E524-1469], the “NAMPT inhibition activity at 20 μM” value is “No (showed no NAMPT inhibition activity at 20 μM (NAMPT activity ≥40%))”.

On to `O=C(NCc1ccc(Cl)cc1)NCc1noc2ccccc12` [E567-0228], for which the “NAMPT inhibition activity at 20 μM” value is listed as “No (showed no NAMPT inhibition activity at 20 μM (NAMPT activity ≥40%))”.

As for `Cc1ccccc1OCc1ccc(-c2nc(C#N)c(NCc3cccnc3)o2)o1` [D301-0303], the “NAMPT inhibition activity at 20 μM” value is “No (showed no NAMPT inhibition activity at 20 μM (NAMPT activity ≥40%))”. Regarding `COc1ccc(CNC(=O)Cn2c(=O)c3cccn3c3cccnc32)cc1` [E524-0113], the “NAMPT inhibition activity at 20 μM” value is reported as “No (showed no NAMPT inhibition activity at 20 μM (NAMPT activity ≥40%))”. For the compound `COc1ccc(CCNC(=O)c2ccc(Cn3c(=O)c4cccn4c4cccnc43)cc2)cc1OC` [E524-1586], the “NAMPT inhibition activity at 20 μM” value is listed as “No (showed no NAMPT inhibition activity at 20 μM (NAMPT activity ≥40%))”.

Regarding `COc1ccc(OC)c(CCNC(=O)CCCn2c(=O)c3cccn3c3cccnc32)c1` [E524-1470], the “NAMPT inhibition activity at 20 μM” value is on record as “No (showed no NAMPT inhibition activity at 20 μM (NAMPT activity ≥40%))”.

As for `Cc1ccccc1CNC(=O)CCCn1nc(C)c2sc3ccccc3c2c1=O` [E019-1139], the “NAMPT inhibition activity at 20 μM” value was “No (showed no NAMPT inhibition activity at 20 μM (NAMPT activity ≥40%))”. On the same count and under the same terms, the result for `COc1ccc(Cl)cc1NC(=O)CCCn1c(=O)c2cccn2c2cccnc21` [E524-1372] reads “No (showed no NAMPT inhibition activity at 20 μM (NAMPT activity ≥40%))”.

For a further test, the target named is T1, recombinant human NAMPT. Kind of test: NAMPT activity assay, IC50 determination (fluorometric detection of NMN derivative). As to conditions: molecular/biochemical assay, read-out: IC50 (NAMPT inhibition).
Description: Using our previously established high throughput screening (HTS) platform and recombinant human NAMPT[14][15], we performed a HTS on a chemical library containing 30000 small-molecules (Chemdiv, CA, USA). Our HTS targeting NAMPT was developed based on a fluorometric method for NAMPT activity assay by measuring the fluorescence of nicotinamide mononucleotide (NMN) derivative resulting from the NAMPT enzymatic product NMN through simple chemical reactions (Fig. 1A). […] These fluorescent and non-fluorescent compounds were further studied separately.
as §1, with “Then 45 μl 88% formic acid was added and the mixture was incubated at 37 °C for 10 min.” left out, “(1): […]” for “(1):”
To determine the IC50 of inhibitors, 0.5 μl compound stocks with various concentrations were added into 96-well plate. The plate was incubated at 37 °C for 5 min after addition of 20 μl reaction buffer containing NAMPT. […] The IC50 values were determined by non-linear fitting of the concentration-dependent curves with the four-parameter IC50 logistic equation.
As to `O=C(NCc1noc2ccccc12)NC1CCCCC1` [E567-0011], the IC50 turned out to be 1620 ± 57.9 nM.

Take `O=C(CSc1nc2c(c(C(F)(F)F)n1)CCc1ccccc1-2)NCCCn1ccnc1` [6466-0191]: the concentration for half-maximal inhibition (IC50) came to 59.4 ± 1.15 nM. Still for that read-out and setting: the result for `O=C(CSC1=Nc2ccccc2N=C(c2ccccn2)C1)Nc1ccc2c(c1)OCCO2` [C201-1928] reads 1450 ± 51.7 nM; that for `CCn1c(=O)c(=O)n(Cc2ccc(C(=O)NCc3ccc(Cl)cc3)cc2)c2cccnc21` [F704-0088], 296 ± 7.61 nM; that for `O=C(NCCc1ccccc1)c1ccc(Cn2c(=O)c3cccn3c3cccnc32)cc1` [E524-1628], 70.9 ± 0.74 nM.

For the compound `O=C(Nc1cccnc1)c1ccc(-n2cnnn2)cc1` [D633-0045], the IC50 came out at 416 ± 30.7 nM. Take `Cc1cc2nc(C)c(=O)n(Cc3ccc(C(=O)NCc4ccccn4)cc3)c2cc1C` [F671-0199]: the IC50 turned out to be 171 ± 16.8 nM. Still for that read-out and setting: the result for `O=C(NCCCN1CCCC1=O)c1ccc(N2CCc3ccccc32)s1` [G122-1637] reads 411 ± 148 nM.

On to `CSc1ccc(CCNC(=O)NCc2noc3ccccc23)cc1` [E567-0304], for which the IC50 was determined as 126 ± 4.23 nM. Regarding `CN1C(=O)C(C)(C)c2cc(S(=O)(=O)NCc3ccc(C(=O)NCc4cccnc4)cc3)ccc21` [E589-3083], the IC50 came to 116 ± 13.1 nM. The same measure, in the same setting: the result for `Cc1ccccc1-c1nnc(COc2ccc(NC(=O)c3cnccn3)cc2)o1` [M350-1052] reads 60.8 ± 2.61 nM; that for `CC(=O)C1=C(C)Nc2ccccc2S1` [1932-0007], 408.6 ± 1.83 nM. On the same count and under the same terms, the result for `CC1CCN(c2c(NCc3ccc(C(=O)NCc4ccc(F)cc4)cc3)c(=O)c2=O)CC1` [C852-0431] reads 869 ± 67.2 nM; that for `CCn1c(=O)c(=O)n(Cc2ccc(C(=O)NCc3cccc(Cl)c3)cc2)c2cccnc21` [F704-0076], 1000 ± 57 nM.

Take `COc1ccc(CNC(=O)c2ccc(Cn3c(=O)c4cccn4c4cccnc43)cc2)cc1` [E524-1597]: the IC50 came out at 75.9 ± 3.51 nM. `CC(C)CCNC(=O)c1ccc(Cn2c(=O)c3cccn3c3cccnc32)cc1` [E524-1626]: the IC50 is 393 ± 8.51 nM. Same read-out and setting: the result for `CCn1c(=O)c(=O)n(Cc2ccc(C(=O)NCc3ccccc3F)cc2)c2cccnc21` [F704-0231] reads 1450 ± 143 nM; that for `O=C(NCc1ccc(Cl)cc1)c1ccc(CNc2c(N3CCCCC3)c(=O)c2=O)cc1` [C804-0859], 704 ± 16.7 nM. Consider `CCOC(=O)c1ccc(NC(=O)NCc2noc3ccccc23)cc1` [E567-0238], for which the IC50 was found to be 86.9 ± 2.77 nM.
